The values below come from ChEMBL document CHEMBL1146384, “Synthesis and in vitro binding studies of substituted piperidine naphthamides. Part II: Influence of the substitution on the benzyl moiety on the affinity for D2L, D4.2, and 5-HT2A receptors” (Bioorg Med Chem Lett, 2007).

pKi: −log10 of the molar value. Active and inactive are the calls of the source. The rule behind the calls is not given here.

One test deals with T1, D(4) dopamine receptor (Homo sapiens, UniProt P21917).
T1 sequence (P21917 whole entry): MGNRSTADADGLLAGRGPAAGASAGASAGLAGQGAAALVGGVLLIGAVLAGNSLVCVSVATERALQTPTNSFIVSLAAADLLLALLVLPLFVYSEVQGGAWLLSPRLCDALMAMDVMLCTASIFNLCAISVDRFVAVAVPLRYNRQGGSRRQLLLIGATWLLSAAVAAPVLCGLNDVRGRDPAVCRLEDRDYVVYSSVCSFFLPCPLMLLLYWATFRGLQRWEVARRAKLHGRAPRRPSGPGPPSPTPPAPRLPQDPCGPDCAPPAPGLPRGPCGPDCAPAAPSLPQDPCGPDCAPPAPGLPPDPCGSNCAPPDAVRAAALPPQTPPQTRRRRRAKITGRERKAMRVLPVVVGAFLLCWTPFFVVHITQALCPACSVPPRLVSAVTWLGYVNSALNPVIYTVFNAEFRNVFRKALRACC
The experiment in a line: Displacement of [3H]nemonapride from human cloned dopamine D4.2 receptor. A general note: Loss of bound radioactivity is the signal in a displacement assay; it reports binding, not function.

The target in test [1] is T2, D(4) dopamine receptor (Homo sapiens) (UniProt P21917).
T2 sequence (whole entry): T1 sequence (P21917 whole entry)
The experiment in a line: Antagonist activity at dopamine D4.2 receptor assessed as inhibition of dopamine-induced effect at 5 uM. In kind it is functional.

Test [2] has as its target D(2) dopamine receptor (Homo sapiens) (UniProt P14416). The experiment in a line: Displacement of [3H]spiperone from human cloned dopamine D2L receptor at 1 uM.
In test [3] the target is 5-hydroxytryptamine receptor 2A (Rattus norvegicus, UniProt P14842). The experiment in a line: Displacement of [3H]ketanserin from rat 5HT2A receptor.
Test [4] has as its target 5-hydroxytryptamine receptor 2A (Homo sapiens) (UniProt P28223). The experiment in a line: Antagonist activity at 5HT2A assessed as inhibition of serotonin-induced effect at 5 uM. The class given is functional.
For test [5], the target named is 5-hydroxytryptamine receptor 2A (Rattus norvegicus) (UniProt P14842). Kind of test: Displacement of [3H]ketanserin from rat 5HT2A receptor at 1 uM.
Test [6] has as its target T2, D(4) dopamine receptor (Homo sapiens). The experiment in a line: Displacement of [3H]nemonapride from human cloned dopamine D4.2 receptor at 1 uM.

Sequence of 5-hydroxytryptamine receptor 2A (Homo sapiens) (P28223 whole entry): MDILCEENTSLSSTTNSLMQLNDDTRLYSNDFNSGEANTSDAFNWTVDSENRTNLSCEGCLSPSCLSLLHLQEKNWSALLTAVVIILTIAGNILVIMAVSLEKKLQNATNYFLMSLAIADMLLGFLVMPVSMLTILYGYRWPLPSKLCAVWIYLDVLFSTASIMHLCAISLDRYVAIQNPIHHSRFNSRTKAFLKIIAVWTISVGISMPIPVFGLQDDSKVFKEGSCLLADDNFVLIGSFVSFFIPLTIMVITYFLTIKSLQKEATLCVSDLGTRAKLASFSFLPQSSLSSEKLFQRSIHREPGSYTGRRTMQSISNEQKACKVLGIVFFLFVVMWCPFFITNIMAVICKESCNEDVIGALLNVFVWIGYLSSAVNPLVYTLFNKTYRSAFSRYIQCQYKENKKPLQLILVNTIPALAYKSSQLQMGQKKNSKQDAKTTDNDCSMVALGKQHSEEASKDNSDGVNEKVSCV
Sequence of 5-hydroxytryptamine receptor 2A (P14842 whole entry): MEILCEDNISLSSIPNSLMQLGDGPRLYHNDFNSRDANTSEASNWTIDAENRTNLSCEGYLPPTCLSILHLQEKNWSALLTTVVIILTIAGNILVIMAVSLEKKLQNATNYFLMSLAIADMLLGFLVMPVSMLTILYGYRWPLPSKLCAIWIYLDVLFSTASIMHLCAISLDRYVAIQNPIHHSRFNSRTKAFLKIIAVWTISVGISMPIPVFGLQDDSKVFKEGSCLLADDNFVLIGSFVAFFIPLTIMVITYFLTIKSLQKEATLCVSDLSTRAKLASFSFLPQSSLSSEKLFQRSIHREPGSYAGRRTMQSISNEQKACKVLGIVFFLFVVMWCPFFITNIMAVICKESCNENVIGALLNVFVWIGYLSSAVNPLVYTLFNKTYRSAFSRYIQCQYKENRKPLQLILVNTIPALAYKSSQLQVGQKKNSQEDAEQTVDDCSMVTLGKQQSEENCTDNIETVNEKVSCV
Sequence of 5-hydroxytryptamine receptor 2A (Rattus norvegicus) (P14842 whole entry): as above
Sequence of D(2) dopamine receptor (Homo sapiens) (P14416 whole entry): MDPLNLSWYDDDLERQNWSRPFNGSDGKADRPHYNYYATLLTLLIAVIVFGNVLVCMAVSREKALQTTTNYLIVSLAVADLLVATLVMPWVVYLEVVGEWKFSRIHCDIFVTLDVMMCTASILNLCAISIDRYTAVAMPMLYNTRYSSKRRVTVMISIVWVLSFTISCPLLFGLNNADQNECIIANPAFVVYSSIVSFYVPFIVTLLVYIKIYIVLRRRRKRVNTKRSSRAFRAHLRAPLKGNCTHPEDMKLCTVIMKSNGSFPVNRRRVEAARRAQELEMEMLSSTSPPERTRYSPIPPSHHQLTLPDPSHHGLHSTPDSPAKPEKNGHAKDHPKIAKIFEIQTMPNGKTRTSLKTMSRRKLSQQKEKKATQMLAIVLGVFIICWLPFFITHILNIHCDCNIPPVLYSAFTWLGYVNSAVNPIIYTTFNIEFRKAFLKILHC

As for `O=C(NC1CCN(Cc2cccc(Cl)c2)CC1)c1ccc2ccccc2c1`, the results for the pKi (at D(4) dopamine receptor; in test [3]) were 7.27 and 6.88, respectively. The result in test [1] and in test [4] was Active. This compound also had an inhibition in test [2] of 29%.

At D(4) dopamine receptor, `COc1ccc(CN2CCC(NC(=O)c3cccc4ccccc34)CC2)cc1` gave a pKi of 6.65. Further, the outcome in test [1] was Active. Besides, the inhibition in test [2] was 3%.

In the case of `Cc1ccccc1CN1CCC(NC(=O)c2cccc3ccccc23)CC1`, at D(4) dopamine receptor, the pKi is 6.81. Further, in test [1], the result was Active. Besides, the inhibition amounted to 26% in test [5] and 9% in test [2].

As for `Cc1cccc(CN2CCC(NC(=O)c3ccc4ccccc4c3)CC2)c1`, the pKi was 7.96 at D(4) dopamine receptor and 7.06 in test [3]. Also, the result in test [1] and in test [4] was Active. In test [2], the inhibition was 20%.

As for `O=C(NC1CCN(Cc2ccccc2Br)CC1)c1ccc2ccccc2c1`, the inhibition worked out at 31% in test [6], 47% in test [5] and 0% in test [2].

With `O=C(NC1CCN(Cc2c(F)c(F)c(F)c(F)c2F)CC1)c1cccc2ccccc12`, the inhibition in test [6] and in test [2] was 0% in each case. Besides, in test [3], the pKi was 6.64.

`COc1cccc(CN2CCC(NC(=O)c3cccc4ccccc34)CC2)c1` showed a pKi at D(4) dopamine receptor of 6.77. Also, in test [1], the outcome was Active. Moreover, the inhibition in test [5] turned out to be 23%; in test [2], 0%.

As for `O=C(NC1CCN(Cc2ccc([N+](=O)[O-])cc2)CC1)c1cccc2ccccc12`, the inhibition in test [6] stood at 42%; in test [5], 20%; in test [2] it was 0%.

For the compound `O=C(NC1CCN(Cc2cccc(Br)c2)CC1)c1ccc2ccccc2c1`, the results for the pKi (at D(4) dopamine receptor; in test [3]) were 7.44 and 7.28, respectively. The result in test [1] and in test [4] was Active.

`O=C(NC1CCN(Cc2cccc(Cl)c2)CC1)c1cccc2ccccc12` showed a pKi at D(4) dopamine receptor of 6.94. The result in test [1] was Active. The inhibition was 49% in test [5] and 0% in test [2].

The compound `O=C(NC1CCN(Cc2ccccc2Cl)CC1)c1cccc2ccccc12` gave a pKi at D(4) dopamine receptor of 6.48. For the same compound, the result in test [1] was Active.

For the compound `O=C(NC1CCN(Cc2ccccc2)CC1)c1ccc2ccccc2c1`, the outcome in test [1] and in test [4] was Active.

Regarding `O=C(NC1CCN(Cc2ccc(C(F)(F)F)cc2)CC1)c1cccc2ccccc12`, on D(4) dopamine receptor, the pKi was 7.02. In addition, in test [1], the outcome was Active. The inhibition in test [5] is 32%; in test [2], 0%.

In the case of `O=C(NC1CCN(Cc2ccc(Br)cc2)CC1)c1ccc2ccccc2c1`, the pKi is 7.47 at D(4) dopamine receptor and 6.65 in test [3]. Further, the result in test [1] and in test [4] was Active.

Take `O=C(NC1CCN(Cc2ccccc2)CC1)c1cccc2ccccc12`: the outcome in test [1] and in test [4] was Active.

For `O=C(NC1CCN(Cc2cccnc2)CC1)c1ccc2ccccc2c1`, the pKi is 6.49 at D(4) dopamine receptor and 6.28 in test [3]. This compound displayed an inhibition in test [2] of 4%.

For `O=C(NC1CCN(Cc2cccc(C(F)(F)F)c2)CC1)c1ccc2ccccc2c1`, the pKi at D(4) dopamine receptor was 6.99. The result in test [1] was Active. For the same compound, the inhibition in test [5] was 15%; in test [2], 9%.

For the compound `O=C(NC1CCN(Cc2cccc(Br)c2)CC1)c1cccc2ccccc12`, the values for the pKi (on D(4) dopamine receptor; in test [3]) were 7.18 and 6.34, respectively. Besides, the result in test [1] and in test [4] was Active.

Take `Cc1ccc(CN2CCC(NC(=O)c3ccc4ccccc4c3)CC2)cc1`: the values for the negative-log Ki (pKi) (on D(4) dopamine receptor; in test [3]) were 7.68 and 6.65, respectively. The outcome in test [1] and in test [4] was Active. In test [2], the inhibition was determined as 42%.

As to `O=C(NC1CCN(Cc2ccccc2Br)CC1)c1cccc2ccccc12`, the inhibition worked out at 35% in test [6] and 8% in test [2].

Take `Cc1ccccc1CN1CCC(NC(=O)c2ccc3ccccc3c2)CC1`: the pKi on D(4) dopamine receptor was 7.59; in test [3], 6.76. The outcome in test [1] and in test [4] was Active. In test [2], this compound yielded an inhibition of 6%.

Regarding `Cc1ccc(CN2CCC(NC(=O)c3cccc4ccccc34)CC2)cc1`, on D(4) dopamine receptor, the pKi was 7.16. Further, the result in test [1] was Active. Also, the inhibition is 33% in test [5] and 13% in test [2].

Compound `O=C(NC1CCN(Cc2ccc(Cl)cc2)CC1)c1cccc2ccccc12` gave a pKi on D(4) dopamine receptor of 7.37. Also, in test [1], the outcome was Active. The inhibition in test [5] turned out to be 23%; in test [2], 0%.

On to `Cc1cccc(CN2CCC(NC(=O)c3cccc4ccccc34)CC2)c1`, for which, at D(4) dopamine receptor, the pKi is 7.11. In test [1], the outcome was Active. Besides, the figures for the inhibition in test [5] and in test [2] were 38% and 11%, respectively.

In the case of `O=C(NC1CCN(Cc2ccc(Br)cc2)CC1)c1cccc2ccccc12`, the pKi at D(4) dopamine receptor was 7.36. Also, the result in test [1] was Active. The same compound returned an inhibition in test [2] of 4%.

On D(4) dopamine receptor, `O=C(NC1CCN(Cc2cccc(C(F)(F)F)c2)CC1)c1cccc2ccccc12` gave a pKi of 6.92. The outcome in test [1] was Active. The inhibition in test [2] worked out at 0%.

In the case of `O=C(NC1CCN(Cc2ccccc2Cl)CC1)c1ccc2ccccc2c1`, the inhibition in test [6] worked out at 48%; in test [2] it was 0%. Moreover, the pKi in test [3] was 6.88. For the same compound, in test [4], the outcome was Active.

With `COc1cccc(CN2CCC(NC(=O)c3ccc4ccccc4c3)CC2)c1`, the pKi on D(4) dopamine receptor was 7.80; in test [3] it was 6.80. Moreover, the outcome in test [1] and in test [4] was Active. The inhibition in test [2] is 0%.

Turning to `O=C(NC1CCN(Cc2ccncc2)CC1)c1ccc2ccccc2c1`, the values for the inhibition in test [6] and in test [2] were 32% and 5%, respectively. This compound had a pKi in test [3] of 6.16.

Take `O=C(NC1CCN(Cc2ccccn2)CC1)c1ccc2ccccc2c1`: the pKi was 6.52 on D(4) dopamine receptor and 6.26 in test [3]. The compound also showed an inhibition in test [2] of 5%.

Take `O=C(NC1CCN(Cc2ccc([N+](=O)[O-])cc2)CC1)c1ccc2ccccc2c1`: the pKi on D(4) dopamine receptor is 6.74; in test [3], 6.56. Also, the result in test [1] and in test [4] was Active. The same compound returned an inhibition in test [2] of 0%.

Consider `O=C(NC1CCN(Cc2c(F)c(F)c(F)c(F)c2F)CC1)c1ccc2ccccc2c1`, for which the inhibition in test [6] amounted to 0%; in test [5], 4%; in test [2], 0%.

With `COc1ccc(CN2CCC(NC(=O)c3ccc4ccccc4c3)CC2)cc1`, the pKi is 7.51 at D(4) dopamine receptor and 6.82 in test [3]. The outcome in test [1] and in test [4] was Active. Also, the inhibition in test [2] was 18%.

Consider `O=C(NC1CCN(Cc2ccc(Cl)cc2)CC1)c1ccc2ccccc2c1`, for which the pKi at D(4) dopamine receptor is 7.43; in test [3] it was 6.62. Also, the outcome in test [1] and in test [4] was Active. Further, the inhibition in test [2] is 15%.

Take `O=C(NC1CCN(Cc2ccc(C(F)(F)F)cc2)CC1)c1ccc2ccccc2c1`: the pKi on D(4) dopamine receptor was 7.08. Besides, the inhibition in test [5] is 36%; in test [2] it was 0%.

A word on the pKi: it is −log10 of the Ki, conventionally taken in molar units. The inhibition is the relative decrease from the control value, in per cent. Low values mean a weak effect, high ones a strong effect.
